Legend:
[1] = target: T1, Interstitial collagenase (Homo sapiens, UniProt P03956); assay: biochemical; format: tissue-based, Rheumatoid synovial fibroblasts;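 also: MMP-1 enzyme inhibition assay using a peptide substrate; in other assays of this panel Not Active means under 50% inhibition at 10 µM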
T1 sequence (P03956 whole entry): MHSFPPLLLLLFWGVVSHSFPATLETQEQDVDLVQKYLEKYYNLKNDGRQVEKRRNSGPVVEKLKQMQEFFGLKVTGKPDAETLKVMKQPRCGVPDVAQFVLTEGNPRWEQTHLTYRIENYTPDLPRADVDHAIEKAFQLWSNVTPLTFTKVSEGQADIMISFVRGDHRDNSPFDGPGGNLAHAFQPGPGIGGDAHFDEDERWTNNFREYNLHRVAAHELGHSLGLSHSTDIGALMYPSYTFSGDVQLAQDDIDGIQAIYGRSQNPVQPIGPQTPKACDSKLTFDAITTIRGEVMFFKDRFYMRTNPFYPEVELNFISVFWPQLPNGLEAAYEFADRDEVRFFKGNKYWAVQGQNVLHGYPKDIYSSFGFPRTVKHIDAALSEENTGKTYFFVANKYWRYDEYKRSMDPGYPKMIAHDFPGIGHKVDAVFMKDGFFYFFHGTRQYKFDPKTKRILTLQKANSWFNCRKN

[2] = target: T2, Calcitonin receptor (Homo sapiens, UniProt P30988); format: cell membranes, Membrane; details: t47d; also: in other assays of this panel Not Active means under 50% inhibition at 10 µM
T2 sequence (P30988 whole entry): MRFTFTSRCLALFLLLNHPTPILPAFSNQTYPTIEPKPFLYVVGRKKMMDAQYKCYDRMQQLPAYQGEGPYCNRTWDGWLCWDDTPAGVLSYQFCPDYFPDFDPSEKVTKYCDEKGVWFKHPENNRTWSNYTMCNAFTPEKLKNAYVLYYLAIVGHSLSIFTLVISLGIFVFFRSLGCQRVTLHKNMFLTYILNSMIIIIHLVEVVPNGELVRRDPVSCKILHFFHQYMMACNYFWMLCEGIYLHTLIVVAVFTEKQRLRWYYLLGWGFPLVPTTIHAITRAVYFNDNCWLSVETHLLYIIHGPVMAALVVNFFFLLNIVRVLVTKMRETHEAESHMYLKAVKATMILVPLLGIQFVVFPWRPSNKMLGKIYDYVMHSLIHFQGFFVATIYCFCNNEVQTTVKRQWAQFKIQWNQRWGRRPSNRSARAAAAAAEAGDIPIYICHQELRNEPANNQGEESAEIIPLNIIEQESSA

[3] = target: 5-hydroxytryptamine receptor 4 (Cavia porcellus, UniProt O70528); format: cell membranes, Dunkin-Hartley, Striatum, Membrane; also: in other assays of this panel Not Active means under 50% inhibition at 10 µM
[4] = target: Mu-type opioid receptor (Homo sapiens, UniProt P35372); assay: DRUGMATRIX: Opiate mu (OP3, MOP) radioligand binding (ligand: [3H] Diprenorphine); format: cell membranes, CHO-K1, Membrane; details: cho-k1; Not Active = under 50% inhibition at 10 µM
[5] = target: T3, Estrogen receptor (Homo sapiens, UniProt P03372); details: sf9; also: in other assays of this panel Not Active means under 50% inhibition at 10 µM
T3 sequence (P03372 whole entry): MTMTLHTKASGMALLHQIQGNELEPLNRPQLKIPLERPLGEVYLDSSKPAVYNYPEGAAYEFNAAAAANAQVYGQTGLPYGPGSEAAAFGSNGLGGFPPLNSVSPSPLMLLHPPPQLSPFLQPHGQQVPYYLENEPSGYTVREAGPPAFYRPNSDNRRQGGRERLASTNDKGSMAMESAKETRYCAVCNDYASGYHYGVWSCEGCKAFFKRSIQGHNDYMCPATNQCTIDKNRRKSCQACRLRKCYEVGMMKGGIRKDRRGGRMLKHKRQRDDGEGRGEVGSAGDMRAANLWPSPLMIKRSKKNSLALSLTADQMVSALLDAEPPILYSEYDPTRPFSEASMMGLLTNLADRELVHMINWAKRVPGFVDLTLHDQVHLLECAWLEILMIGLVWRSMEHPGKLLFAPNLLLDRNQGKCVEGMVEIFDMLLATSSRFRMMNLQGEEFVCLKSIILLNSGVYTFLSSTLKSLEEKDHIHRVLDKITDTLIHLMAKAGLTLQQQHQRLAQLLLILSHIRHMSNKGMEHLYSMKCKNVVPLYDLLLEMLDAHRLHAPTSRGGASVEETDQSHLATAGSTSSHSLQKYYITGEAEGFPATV

[6] = target: Protein kinase C alpha type (Homo sapiens, UniProt P17252); format: cell-based; details: sf9
[7] = target: T4, C-X-C chemokine receptor type 2 (Homo sapiens, UniProt P25025); format: cell membranes, Membrane; details: cho-k1; also: in other assays of this panel Not Active means under 50% inhibition at 10 µM
T4 sequence (P25025 whole entry): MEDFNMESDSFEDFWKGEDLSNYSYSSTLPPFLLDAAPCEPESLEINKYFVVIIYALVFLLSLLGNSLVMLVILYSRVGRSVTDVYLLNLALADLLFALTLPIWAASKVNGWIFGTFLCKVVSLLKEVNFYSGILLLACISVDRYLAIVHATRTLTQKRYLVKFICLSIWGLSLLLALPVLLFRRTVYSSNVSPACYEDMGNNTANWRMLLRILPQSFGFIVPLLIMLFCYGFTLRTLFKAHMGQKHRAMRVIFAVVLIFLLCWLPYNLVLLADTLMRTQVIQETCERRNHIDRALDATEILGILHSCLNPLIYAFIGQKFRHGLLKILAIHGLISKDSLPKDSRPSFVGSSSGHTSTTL

[8] = target: T5, Muscarinic acetylcholine receptor M2 (Homo sapiens, UniProt P08172); format: cell membranes, CHO-K1, Membrane; also: in other assays of this panel Not Active means under 50% inhibition at 10 µM
T5 sequence (P08172 whole entry): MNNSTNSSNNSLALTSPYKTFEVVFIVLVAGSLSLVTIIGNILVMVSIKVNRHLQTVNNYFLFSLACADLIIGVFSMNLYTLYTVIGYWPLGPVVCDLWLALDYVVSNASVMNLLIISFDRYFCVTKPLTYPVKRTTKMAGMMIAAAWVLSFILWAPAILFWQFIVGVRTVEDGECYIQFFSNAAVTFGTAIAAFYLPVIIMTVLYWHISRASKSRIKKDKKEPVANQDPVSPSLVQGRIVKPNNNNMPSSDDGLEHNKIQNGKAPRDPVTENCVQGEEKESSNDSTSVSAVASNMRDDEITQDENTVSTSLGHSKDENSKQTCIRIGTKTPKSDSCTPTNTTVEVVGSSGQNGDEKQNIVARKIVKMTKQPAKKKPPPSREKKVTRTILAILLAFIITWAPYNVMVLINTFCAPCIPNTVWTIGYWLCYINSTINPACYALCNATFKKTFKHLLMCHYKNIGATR

Chain of Mu-type opioid receptor (P35372 whole entry): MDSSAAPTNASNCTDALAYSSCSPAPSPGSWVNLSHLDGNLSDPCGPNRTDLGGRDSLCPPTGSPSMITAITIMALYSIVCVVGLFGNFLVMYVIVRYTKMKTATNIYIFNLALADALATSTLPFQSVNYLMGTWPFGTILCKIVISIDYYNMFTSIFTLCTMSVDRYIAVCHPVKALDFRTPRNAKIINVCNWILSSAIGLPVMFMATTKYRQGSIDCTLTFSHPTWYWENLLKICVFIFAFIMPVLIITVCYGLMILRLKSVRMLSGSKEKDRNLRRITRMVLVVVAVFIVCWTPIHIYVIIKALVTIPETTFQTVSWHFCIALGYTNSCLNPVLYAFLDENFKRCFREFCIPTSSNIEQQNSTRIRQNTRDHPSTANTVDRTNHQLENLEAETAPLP
Chain of 5-hydroxytryptamine receptor 4 (O70528 whole entry): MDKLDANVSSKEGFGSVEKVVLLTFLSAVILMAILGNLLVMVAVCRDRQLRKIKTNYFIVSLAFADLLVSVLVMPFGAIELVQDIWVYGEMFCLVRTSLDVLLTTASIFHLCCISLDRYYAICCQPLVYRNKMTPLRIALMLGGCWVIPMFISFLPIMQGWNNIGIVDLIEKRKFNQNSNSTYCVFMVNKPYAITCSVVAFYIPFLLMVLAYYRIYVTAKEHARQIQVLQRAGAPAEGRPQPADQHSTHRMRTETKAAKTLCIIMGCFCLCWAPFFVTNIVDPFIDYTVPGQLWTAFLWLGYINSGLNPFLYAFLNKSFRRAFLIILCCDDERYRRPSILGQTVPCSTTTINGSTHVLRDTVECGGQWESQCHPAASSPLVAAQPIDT

Compound	IC50 [1]	IC50 [2]	IC50 [3]	IC50 [4]	IC50 [5]	IC50 [6]	IC50 [7]	IC50 ([8]; read-out: IC50) [nM]	Ki ([8]; read-out: Ki) [nM]	IC50 ([8]; cho-k1)	Ki [3]	IC50 ([1]; read-out: IC50) [nM]
OC(CCCN1CCCCC1)(c1ccccc1)c1ccccc1 [DIPHENIDOL]	Not Active	Not Active	Not Active	Not Active	Not Active	Not Active	Not Active	770	274	–	–	–
CCC(=O)O[C@]1(C(=O)CCl)[C@@H](C)C[C@H]2[C@@H]3CCC4=CC(=O)C=C[C@]4(C)[C@@]3(F)[C@@H](O)C[C@@]21C [CLOBETASOL PROPIONATE]	Not Active	Not Active	Not Active	Not Active	Not Active	Not Active	Not Active	–	–	Not Active	–	–
O=C(O)CCNC(=O)c1ccccc1 [BETAMIPRON]	Not Active	Not Active	Not Active	Not Active	Not Active	Not Active	Not Active	–	–	Not Active	–	–
O=c1cnn([C@@H]2O[C@H](CO)[C@@H](O)[C@H]2O)c(=O)[nH]1 [6-AZAURIDINE]	Not Active	Not Active	Not Active	Not Active	Not Active	Not Active	Not Active	–	–	Not Active	–	–
O=C(c1ccccc1C(F)(F)F)N1CCC(Cc2ccccc2)CC1	Not Active	Not Active	Not Active	Not Active	Not Active	Not Active	Not Active	–	–	Not Active	–	–
C[n+]1ccccc1/C=N/O.[Cl-] [PRALIDOXIME CHLORIDE]	Not Active	Not Active	–	Not Active	Not Active	Not Active	Not Active	–	–	Not Active	Not Active	–
COc1cc2nc(N3CCN(C(=O)c4ccco4)CC3)nc(N)c2cc1OC [PRAZOSIN]	–	Not Active	Not Active	Not Active	Not Active	Not Active	Not Active	–	–	Not Active	–	4040
COc1ccc(C2C(=O)c3ccccc3C2=O)cc1 [ANISINDIONE]	Not Active	Not Active	Not Active	Not Active	Not Active	Not Active	Not Active	–	–	Not Active	–	–
COC(=O)Nc1nc2ccc([S+]([O-])c3ccccc3)cc2[nH]1 (stereo not drawn) [OXFENDAZOLE]	Not Active	Not Active	Not Active	Not Active	Not Active	Not Active	Not Active	–	–	Not Active	–	–
CC(C(=O)O)c1ccc2oc(-c3ccc(Cl)cc3)nc2c1 (stereo not drawn) [BENOXAPROFEN]	Not Active	Not Active	Not Active	Not Active	Not Active	Not Active	Not Active	–	–	Not Active	–	–
Cc1cc2c(OCC(CNC(C)(C)C)OC(=O)c3ccccc3)cccc2[nH]1 (stereo not drawn) [BOPINDOLOL]	Not Active	Not Active	Not Active	Not Active	Not Active	Not Active	Not Active	–	–	Not Active	–	–
Nc1ccn([C@@H]2O[C@H](CO)[C@@H](O)C2(F)F)c(=O)n1 [GEMCITABINE]	Not Active	Not Active	Not Active	Not Active	Not Active	Not Active	Not Active	–	–	Not Active	–	–
COc1ccc2[nH]cc(CCNC(C)=O)c2c1 [MELATONIN]	Not Active	Not Active	Not Active	Not Active	Not Active	Not Active	Not Active	–	–	Not Active	–	–
C#CC1(O)CC[C@H]2[C@@H]3CCC4=CC(=O)CC[C@@H]4[C@H]3CC[C@@]21CC (stereo partly drawn) [NORGESTREL]	Not Active	Not Active	Not Active	Not Active	Not Active	Not Active	Not Active	–	–	Not Active	–	–

From ChEMBL document CHEMBL1909046, “DrugMatrix in vitro pharmacology data”
